The results in this text go back to patent US11752150B2, “Anti-tumor immunotherapy enhancer” (Nobuo Tsukamoto, priority 2017, dated 2023).

The test system of this test is mouse cancer cells MCA205 IDO1WT. Briefly: Tumor volume in C57BL/6 mice implanted with MCA205 IDO1WT cells (1-MT and Y15). Format: in vivo. Conditions: MCA205 IDO1WT in C57BL/6; Y15 600 μg/animal i.p. once a day from Day 5; 1-MT 4 mg/mL in drinking water from Day 5; n=5; FIG. 23. The method, then: On Day 0, 5×10^5 mouse cancer cells MCA205 IDO1WT expressing the wild-type mouse IDO1 gene were implanted into the ventral side of C57BL/6 mice.
The FAK inhibitor Y15 (MedChem Express) was dissolved in PBS and administered intraperitoneally once a day from Day 5 at 600 μg/100 μl/animal. In the control group, PBS was intraperitoneally administered at 100 μl/animal once a day from Day 5.
The major axis and minor axis of the tumor were measured every two days. The tumor volume was calculated as 0.5×(major axis)×(minor axis)^2.

`Cl.Cl.Cl.Cl.Nc1cc(N)c(N)cc1N` [Y15, 1,2,4,5-benzenetetraamine tetrahydrochloride]: the tumor volume result is reported as “a smaller tumor was formed as compared with the group to which neither drug was administered”.
